Assay results: ChEMBL document CHEMBL1146115, “Synthesis and evaluation of novel heterocyclic inhibitors of GSK-3” (Bioorg Med Chem Lett, 2006)

target: Glycogen synthase kinase-3 (Homo sapiens, UniProt P49840+P49841); experiment: Inhibition of GSK3; assay type: protein assay

SMILES	Log IC50
COc1cccc(-c2[nH]nc3c(N/N=C/c4ccncc4)ncnc23)c1	-8.3
COc1cccc(-c2c[nH]c3c(N/N=C/c4ccncc4)ncnc23)c1 [GW814408X]	-8.3
COc1cccc(-n2cnc3c(N/N=C/c4ccncc4)ncnc32)c1 [GW813360X]	-6.2
COc1cccc(-n2ncc3c(N/N=C/c4ccncc4)ncnc32)c1 [GW784752X]	-8.2

Other lines, results leading:

Log IC50	SMILES
-7.5	COc1cccc(-n2ccc3c(N/N=C/c4ccncc4)ncnc32)c1
-6.3	COc1cccc(-c2cn(C)c3c(N/N=C/c4ccncc4)ncnc23)c1
